Experimental data taken from patent US9993457B2, “Method of improving visual processing, visual acuity, or both by administering compositions comprising RRR-alpha-tocopherol and carotenoid to infants” (ABBOTT LABORATORIES, priority 2014, dated 2018).
Where two headings read alike, the source gives them in different places.

Tests used:
[1] = in vivo
Excerpt: In Example 1, the brain tissues of infants were sampled to measure the concentration of total alpha-tocopherol and RRR-alpha-tocopherol.
Subjects were infants (n=25) who died during the first year of life from either SIDS or other conditions. Brain tissues (occipital cortex, OC {n=17}; frontal cortex, FC {n−17}; and hippocampus, HPC {n=19}) from the NICHD Brain and Tissue Bank were processed using standard lipid extraction procedures and analyzed using chiral reverse phase HPLC. Data are presented as concentrations (μg/g tissue) of total alpha-tocopherol or RRR-alpha-tocopherol in the brain tissue.
The mean concentration in each region is denoted by a horizontal bar. […] In addition, total alpha-tocopherol was analyzed by age (in days) in the frontal cortex (graph B), hippocampus (graph C), and occipital cortex (graph D). […] RRR-alpha-tocopherol concentrations were also measured in the frontal cortex (graph E), hippocampus (graph F), and occipital cortex (graph G) of human infant brain tissues and reported as a function of age.

[2] = cited from earlier work

Row | Compound | correlation between age and mean concentration [1] | stereoisomer predominance compared to all non-RRR-alpha-tocopherol stereoisomers [1] | biological activity relative to all-rac-alpha-tocopherol ([2]; accepted nutritional guidelines) [times] | biological activity relative to all-rac-alpha-tocopherol ([2]; recent studies) | change of total alpha-tocopherol concentration with age [1]
1 | Cc1c(C)c2c(c(C)c1O)CC[C@@](C)(CCC[C@H](C)CCC[C@H](C)CCCC(C)C)O2 [RRR-alpha-tocopherol] | strong correlation | predominant stereoisomer | 1.36 | about 2 times | 
2 | Cc1c(C)c2c(c(C)c1O)CC[C@@](C)(CCC[C@H](C)CCC[C@H](C)CCCC(C)C)O2 [alpha-tocopherol] |  |  |  |  | increased with age
